Each molecule was assayed on HBV (assay: HBV in vitro test in quantitative qPCR assay (HBV DNA content in HepG2.2.15 cells)). Details: HBV DNA by qPCR, day 8, read-out: 50% inhibitory concentration (EC50) value of HBV.
Format: cell-based
Procedure: HBV In Vitro Test in Quantitative qPCR Assay
The HBV DNA content in HepG2.2.15 cells was determined by real-time quantitative qPCR assay (real time-qPCR), and the inhibitory effect of the compound on HBV was evaluated by the EC50 value of the compound.
2.1 Cell line: HepG2.2.15 cells
3.1 HepG2.2.15 cells (4×10^4 cells/well) were seeded into a 96-well plate and incubated overnight at 37° C. under 5% CO2.
3.2 On the 2nd day, the compound was diluted into 8 concentrations with 3-time gradient. The compounds with different concentrations were added into the culture wells in duplicate wells. The final concentration of DMSO in the culture medium was 1%. 1 μM GLS4 was used as a 100% inhibition control, and 1% DMSO was used as a 0% inhibition control.
3.3 On the 5th day, the culture medium was replaced with a fresh medium containing the compound.
3.4 On the 8th day, the culture medium in the culture well was collected, and the DNA was extracted with a high-throughput DNA purification kit (Qiagen-51162), of which specific procedure was referred to the product specification.
3.6 15 μL of the reaction mixture was added into each well of a 96-well PCR plate, followed by addition of 10 μL of sample DNA or HBV DNA standards into each well.
3.7 PCR reaction conditions: heating at 95° C. for 10 minutes; then denaturation at 95° C. for 15 seconds, extension at 60° C. for 1 minute, a total of 40 cycles.
3.8.1 Calculation of the percentage of inhibition: % Inh.=[1−(DNA copy number in sample−DNA copy number in 1 μM GLS4)/(DNA copy number in DMSO control−DNA copy number in 1 μM GLS4)]×100
3.8.2 Calculation of EC50: The 50% inhibitory concentration (EC50) value of the compound on HBV was calculated by GraphPad Prism software.

Compound	EC50 [nM]
O=C(NCCOc1cccnc1)c1ccc2c(c1)NC(=O)c1cccn1S2(=O)=O [WX297]	≤ 100

Same assay, conditions: Hepatitis B virus, HepG2.2.15, 192 h, HBV DNA by qPCR, day 8, read-out: 50% inhibitory concentration (EC50) value of HBV

Compound	EC50 [nM]
O=C(NCCC1CCCO1)c1ccc2c(c1)NC(=O)c1cc(Cl)cn1S2(=O)=O (centres unmarked) [WX143]	≤ 100
CC(C)c1ncc(CNC(=O)c2ccc3c(c2)NC(=O)c2c(Cl)ccn2S3(=O)=O)s1 [WX145]	100 to 500
CC(C)(C)OC(=O)N1CC2C(C1)C2NC(=O)c1ccc2c(c1)NC(=O)c1cccn1S2(=O)=O (centres unmarked) [WX146]	1000 to 10000
COCCCNC(=O)c1ccc2c(c1)NC(=O)c1cccn1S2(=O)=O [WX175]	100 to 500
O=C(NCc1ccccn1)c1ccc2c(c1)NC(=O)c1cccn1S2(=O)=O [WX176]	1000 to 10000
O=C(NCCC1CCCC1)c1ccc2c(c1)NC(=O)c1cccn1S2(=O)=O [WX184]	100 to 500
CCc1cc2n(c1)S(=O)(=O)c1ccc(C(=O)NCCC3CCCO3)cc1NC2=O (centres unmarked) [WX185]	≤ 100
Cc1cc2n(c1)S(=O)(=O)c1ccc(C(=O)NCCC3CCCO3)cc1NC2=O (centres unmarked) [WX186]	≤ 100
O=C(NCCCC(F)(F)F)c1ccc2c(c1)NC(=O)c1cccn1S2(=O)=O [WX187]	100 to 500
O=C(NCc1ccc(F)cc1)c1ccc2c(c1)NC(=O)c1cccn1S2(=O)=O [WX189]	100 to 500
CS(=O)(=O)CCCNC(=O)c1ccc2c(c1)NC(=O)c1cccn1S2(=O)=O [WX190]	500 to 1000
CC(C)(C)OC(=O)N1CC(NC(=O)c2ccc3c(c2)NC(=O)c2cccn2S3(=O)=O)C1 [WX195]	500 to 1000
CC(C)(C)OC(=O)N1CC(CNC(=O)c2ccc3c(c2)NC(=O)c2cccn2S3(=O)=O)C1 [WX196]	≤ 100
CC(C)(C)OC(=O)N1CCC(CCNC(=O)c2ccc3c(c2)NC(=O)c2cccn2S3(=O)=O)CC1 [WX197]	100 to 500
CC(C)(C)OC(=O)N1CCCC1CNC(=O)c1ccc2c(c1)NC(=O)c1cccn1S2(=O)=O (centres unmarked) [WX198]	100 to 500
CC(C)(C)OC(=O)N1CCC(CNC(=O)c2ccc3c(c2)NC(=O)c2cccn2S3(=O)=O)CC1 [WX200]	≤ 100
COC(=O)N1CC(NC(=O)c2ccc3c(c2)NC(=O)c2cccn2S3(=O)=O)C1 [WX201]	500 to 1000
O=C(NCCc1cnco1)c1ccc2c(c1)NC(=O)c1cccn1S2(=O)=O [WX206]	100 to 500
O=C(NCCN1CCCC1=O)c1ccc2c(c1)NC(=O)c1cccn1S2(=O)=O [WX208]	500 to 1000
O=C(NCCn1ccccc1=O)c1ccc2c(c1)NC(=O)c1cccn1S2(=O)=O [WX211]	500 to 1000
O=C(NCCC1CCCCC1)c1ccc2c(c1)NC(=O)c1cccn1S2(=O)=O [WX215]	100 to 500
O=C(NCCc1ccc(F)cc1)c1ccc2c(c1)NC(=O)c1cccn1S2(=O)=O [WX216]	≤ 100
COc1ccc(CCNC(=O)c2ccc3c(c2)NC(=O)c2cccn2S3(=O)=O)cc1 [WX217]	≤ 100
O=C(NCCc1ccccc1)c1ccc2c(c1)NC(=O)c1cccn1S2(=O)=O [WX218]	≤ 100
CSCCNC(=O)c1ccc2c(c1)NC(=O)c1cccn1S2(=O)=O [WX219]	≤ 100
O=C(NCc1cccnc1)c1ccc2c(c1)NC(=O)c1cccn1S2(=O)=O [WX220]	≤ 100

Compound	EC50 [nM]
COC1(CCNC(=O)c2ccc3c(c2)NC(=O)c2cccn2S3(=O)=O)CC1 [WX223]	500 to 1000
O=C(NCCC1CCC(F)(F)CC1)c1ccc2c(c1)NC(=O)c1cccn1S2(=O)=O [WX225]	100 to 500
O=C(NCCN1CCCS1(=O)=O)c1ccc2c(c1)NC(=O)c1cccn1S2(=O)=O [WX226]	500 to 1000
O=C(NCc1cccc(OC(F)(F)F)c1)c1ccc2c(c1)NC(=O)c1cccn1S2(=O)=O [WX227]	100 to 500
O=C(NCc1ccncc1)c1ccc2c(c1)NC(=O)c1cccn1S2(=O)=O [WX228]	100 to 500
O=C(NCCc1ccccn1)c1ccc2c(c1)NC(=O)c1cccn1S2(=O)=O [WX229]	100 to 500
O=C(NCCC(F)(F)F)c1ccc2c(c1)NC(=O)c1cccn1S2(=O)=O [WX230]	100 to 500
O=C(NCc1cncnc1)c1ccc2c(c1)NC(=O)c1cccn1S2(=O)=O [WX231]	100 to 500
CS(=O)(=O)N1CC(NC(=O)c2ccc3c(c2)NC(=O)c2cccn2S3(=O)=O)C1 [WX232]	500 to 1000
CN(C)c1ncc(CNC(=O)c2ccc3c(c2)NC(=O)c2cccn2S3(=O)=O)s1 [WX233]	≤ 100
O=C(NCc1ccc(C(F)(F)F)cc1)c1ccc2c(c1)NC(=O)c1cccn1S2(=O)=O [WX235]	100 to 500
O=C(NCCc1cccc(F)c1)c1ccc2c(c1)NC(=O)c1cccn1S2(=O)=O [WX237]	≤ 100
O=C(NCc1cccc(F)c1)c1ccc2c(c1)NC(=O)c1cccn1S2(=O)=O [WX239]	≤ 100
CC(C)c1ncc(CNC(=O)c2ccc3c(c2)NC(=O)c2cccn2S3(=O)=O)s1 [WX254]	100 to 500
CC(C)c1ncc(CNC(=O)c2ccc3c(c2)NC(=O)c2cc(Cl)cn2S3(=O)=O)s1 [WX255]	≤ 100
O=C(NCc1cnc(Cl)s1)c1ccc2c(c1)NC(=O)c1cccn1S2(=O)=O [WX257]	≤ 100
Cc1cccc2ncc(CNC(=O)c3ccc4c(c3)NC(=O)c3cccn3S4(=O)=O)n12 [WX258]	100 to 500
Cc1ccsc1CNC(=O)c1ccc2c(c1)NC(=O)c1cccn1S2(=O)=O [WX259]	100 to 500
Cc1nc(C)c(CNC(=O)c2ccc3c(c2)NC(=O)c2cccn2S3(=O)=O)s1 [WX260]	≤ 100
Cc1ccc2ncc(CNC(=O)c3ccc4c(c3)NC(=O)c3cccn3S4(=O)=O)n2c1 [WX261]	100 to 500
Cc1ccc(CNC(=O)c2ccc3c(c2)NC(=O)c2cccn2S3(=O)=O)s1 [WX262]	100 to 500
Cn1nccc1CNC(=O)c1ccc2c(c1)NC(=O)c1cccn1S2(=O)=O [WX263]	500 to 1000
O=C(NCc1cnccc1C(F)(F)F)c1ccc2c(c1)NC(=O)c1cccn1S2(=O)=O [WX265]	1000 to 10000
CN(Cc1nc2ccccc2s1)C(=O)c1ccc2c(c1)NC(=O)c1cccn1S2(=O)=O [WX266]	100 to 500
O=C(NCc1cnc2ccccn12)c1ccc2c(c1)NC(=O)c1cccn1S2(=O)=O [WX267]	100 to 500
O=C(NCCC1CCCO1)c1ccc2c(c1)NC(=O)c1cc(F)cn1S2(=O)=O (centres unmarked) [WX270]	100 to 500

Compound	EC50 [nM]
Cc1nnc(CNC(=O)c2ccc3c(c2)NC(=O)c2cccn2S3(=O)=O)s1 [WX271]	500 to 1000
Cn1cc(CNC(=O)c2ccc3c(c2)NC(=O)c2cccn2S3(=O)=O)cn1 [WX272]	100 to 500
CN1CC(CNC(=O)c2ccc3c(c2)NC(=O)c2cccn2S3(=O)=O)OC1=O (centres unmarked) [WX275]	500 to 1000
O=C(NCCc1cccnc1)c1ccc2c(c1)NC(=O)c1cccn1S2(=O)=O [WX278]	≤ 100
CC(C)(C)C(=O)N1CCC(CNC(=O)c2ccc3c(c2)NC(=O)c2cccn2S3(=O)=O)CC1 [WX279]	100 to 500
O=C(NCC1CCOC1)c1ccc2c(c1)NC(=O)c1cccn1S2(=O)=O (centres unmarked) [WX280]	100 to 500
CC(C)OC(=O)N1CCC(CNC(=O)c2ccc3c(c2)NC(=O)c2cccn2S3(=O)=O)CC1 [WX285]	100 to 500
O=C(NCC1CCN(C(=O)Oc2ccccc2)CC1)c1ccc2c(c1)NC(=O)c1cccn1S2(=O)=O [WX286]	500 to 1000
CC(C)CC(=O)N1CCC(CNC(=O)c2ccc3c(c2)NC(=O)c2cccn2S3(=O)=O)CC1 [WX287]	500 to 1000
O=C(NCC1CCC(F)(F)CC1)c1ccc2c(c1)NC(=O)c1cccn1S2(=O)=O [WX288]	100 to 500
O=C(NCCOC1CCCC1)c1ccc2c(c1)NC(=O)c1cccn1S2(=O)=O [WX292]	500 to 1000
O=C(NCCc1ccc(F)c(F)c1)c1ccc2c(c1)NC(=O)c1cccn1S2(=O)=O [WX293]	≤ 100
O=C(NCCOc1cccnc1)c1ccc2c(c1)NC(=O)c1cccn1S2(=O)=O [WX295]	100 to 500
N#Cc1ccc(-c2ncc(CNC(=O)c3ccc4c(c3)NC(=O)c3cccn3S4(=O)=O)s2)cc1 [WX298]	≤ 100
O=C(NCCCc1ccc(F)cc1)c1ccc2c(c1)NC(=O)c1cccn1S2(=O)=O [WX299]	100 to 500
O=C(NCCc1cccc(Cl)c1)c1ccc2c(c1)NC(=O)c1cccn1S2(=O)=O [WX300]	100 to 500
O=C(NCCc1ccc(Cl)cc1)c1ccc2c(c1)NC(=O)c1cccn1S2(=O)=O [WX301]	≤ 100
Cc1cc2n(c1)S(=O)(=O)c1ccc(C(=O)NCCc3ccc(F)cc3)cc1NC2=O [WX305]	≤ 100
Cc1cc2n(c1)S(=O)(=O)c1ccc(C(=O)NCc3cccnc3)cc1NC2=O [WX306]	≤ 100
Cc1cc2n(c1)S(=O)(=O)c1ccc(C(=O)NCc3cnc(-c4ccc(C#N)cc4)s3)cc1NC2=O [WX308]	≤ 100
Cc1cc2n(c1)S(=O)(=O)c1ccc(C(=O)NCCC3CCCCO3)cc1NC2=O (centres unmarked) [WX309]	≤ 100
O=C(NCCC1CCCO1)c1ccc2c(c1)NC(=O)c1cc(Br)cn1S2(=O)=O (centres unmarked) [WX311]	≤ 100
O=C(NCCC1CCCCO1)c1ccc2c(c1)NC(=O)c1cc(Br)cn1S2(=O)=O (centres unmarked) [WX312]	≤ 100
O=C(NCCC1CCCCCO1)c1ccc2c(c1)NC(=O)c1cccn1S2(=O)=O (centres unmarked) [WX318]	≤ 100
